# Test results taken from patent US20250312336A1, “Compositions And Methods For Treating Cancer With Calcium Channel Inhibitors” (Institute for Cancer Research d/b/a The Research Institute …, priority 2024, published 2025).
# “Also recorded” adds a separate entry of the source.
# T1: ANO6 (Homo sapiens, UniProt Q4KMQ2)
# T1 sequence (Q4KMQ2 1-910): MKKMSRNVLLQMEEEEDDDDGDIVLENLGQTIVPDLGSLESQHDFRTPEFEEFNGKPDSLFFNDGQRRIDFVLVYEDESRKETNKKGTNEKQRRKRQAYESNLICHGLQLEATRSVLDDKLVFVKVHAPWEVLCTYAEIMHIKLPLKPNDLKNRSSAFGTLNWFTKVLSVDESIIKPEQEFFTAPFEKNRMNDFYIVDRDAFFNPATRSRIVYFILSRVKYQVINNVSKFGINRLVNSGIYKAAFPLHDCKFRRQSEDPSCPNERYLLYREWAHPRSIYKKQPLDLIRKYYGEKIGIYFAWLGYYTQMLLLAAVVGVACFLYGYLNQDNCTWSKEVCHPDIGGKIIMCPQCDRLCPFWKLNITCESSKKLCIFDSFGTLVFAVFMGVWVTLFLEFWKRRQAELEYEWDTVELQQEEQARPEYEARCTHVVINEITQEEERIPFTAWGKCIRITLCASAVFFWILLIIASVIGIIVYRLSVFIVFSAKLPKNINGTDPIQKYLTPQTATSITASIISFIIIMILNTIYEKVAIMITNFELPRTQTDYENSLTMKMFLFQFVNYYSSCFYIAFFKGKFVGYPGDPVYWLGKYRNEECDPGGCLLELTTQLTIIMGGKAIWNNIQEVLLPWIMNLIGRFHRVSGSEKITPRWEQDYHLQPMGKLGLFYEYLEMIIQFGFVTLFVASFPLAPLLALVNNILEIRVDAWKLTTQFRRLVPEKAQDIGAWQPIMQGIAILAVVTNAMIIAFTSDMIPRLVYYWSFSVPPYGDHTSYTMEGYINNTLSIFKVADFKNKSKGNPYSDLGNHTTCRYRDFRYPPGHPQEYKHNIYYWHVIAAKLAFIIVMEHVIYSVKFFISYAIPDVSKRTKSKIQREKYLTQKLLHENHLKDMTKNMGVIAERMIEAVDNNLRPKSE
# Legend:
# [1] = system: store-operated calcium entry (SOCE) in CAFs; test: Cytosolic calcium (Fluo4) in CAFs co-cultured with Panc-1 cells; type: cell-based, human; details: indicated concentrations of inhibitors, Fluo4 measured 5 minutes after addition
# Procedure: CAF (5×10^3) and PDAC ([…]) cells were incubated (separately or in co-culture) on coverslips for 12 hrs before loading with the calcium indicator Fluo4-AM (5 μM; Invitrogen, Eugene, OR) in DMEM supplemented with HEPES and 0.5% FBS and incubated at 37° C., 5% CO2 for 30 min. Cells were washed in DMEM before incubating for an additional 30 minutes at 37° C., 5% CO2 to permit de-esterification of the dye. Fluorescence emissions at 506 nm in response to excitation at 494 nm were monitored for 60 cycles at a frequency of 0.33 Hz using a Leica SP8 laser scanning microscope (Buffalo Grove, IL) at 37° C. with 5% CO2. Intracellular Ca2+measurements are shown as absolute fluorescence obtained from 35-45 cells obtained using Leica LASX software. Averaged results±SEM from at least three independent experiments were analyzed by one-way ANOVA with GraphPad Prism. […]
# CAF (5×10^3) cells were incubated on coverslips for 12 hrs before loading with the calcium indicator Fura2-AM (2 μM; Invitrogen, Eugene, OR) in cation-safe solution (107 mM NaCl, 7.2 mM KCl, 1.2 mM MgCl2, 11.5 mM glucose, 20 mM Hepes-NaOH, 1 mM CaCl2, pH 7.2) for 30 min at 24° C. as previously described. Cells were washed, and dye was allowed to de-esterify for a minimum of 30 min at 24° C. Cells were treated with Vehicle control, […] CM462, or 1 μM BTP2 along with 2 μM Thapsigargin for 10 minutes. After Ca2+ levels returned to their baseline, 1 mM Ca2+ was added. Ca2+ measurements were made using a Leica DMI 6000B fluorescence microscope controlled by Slidebook Software (Intelligent Imaging Innovations; Denver, CO). Fluorescence emission at 505 nm was monitored while alternating between 340 and 380 nm excitation wavelengths at a frequency of 0.67 Hz; intracellular Ca2+ measurements are shown as 340/380 nm ratios obtained from groups (20-25) of single cells.
# ANO6 [2] = biological target: T1, ANO6; test: PtdSer externalization (annexin XII) in CAFs co-cultured with DsRed-tagged Panc-1 cells; type: cell-based; design: this increase was observed only in control CAFs (ANO6-proficient) engaged in physical contacts with DsRed-tagged Panc-1 cells; endogenous in cells; host or cells: human CAFs in co-culture with DsRed-tagged Panc-1 cells; details: BTP2 10 μM; clofazimine 1 μM; niclosamide
# Procedure: (§1) CAFs were seeded in 24-well glass bottom plates (cat. #81156, Ibidi, Fitchburg, WI) at a density of 20,000 cells per well. Cells were then treated with niclosamide (1 μM) for 2 h. After one wash with FBS-free media at RT, cells were incubated with 250 μl of 1:100 annexin XII and 1:200 propidium iodide (pSIVA Abcam #ab129817), with or without 10 μM ionomycin. Cells were then incubated (5 min 37C) and imaged by fluorescence microscopy using a Nikon A1 camera (Nikon) linked to a Nikon Eclipse Ti2-E Inverted Microscope Imaging System (Nikon) for each channel. Fifteen images per well were acquired.
# ANO6 [3] = biological target: T1, ANO6; test: Phosphatidylserine externalization assay in CAFs pulsed with ionomycin (annexin XII); type: cell-based; design: endogenous in cells; host or cells: human patient-derived, hTERT-immortalized pancreatic cancer-associated fibroblasts (CAFs)
# Procedure: as §1
# Panc-1 cells = test: Trogocytosis of PKH67-labeled CAF membranes by Panc-1 cells in co-culture (flow cytometry); type: cell-based, human; details: 3 mM EGTA, mean fluorescence intensity normalized to vehicle
# Procedure: (§2) To label cellular membranes, pairs of lipophilic fluorescent dyes were used according to the manufacturer's instructions in the following combinations: 1) adherent CAFs were stained with 1 μM PKH67 (Sigma-Aldrich), Panc-1 were stained in suspension with 10 μM CellTracker™ orange CMCMR (Thermo Fisher Scientific); 2) CAFs labeled with 0.5 μM BODIPY-cholesterol (Topfluor Cholesterol, #DO-016545, Avanti Polar Lipids) dissolved in 0.1 mM methyl-beta-cyclodextrin (#C4555, Sigma) with 2 μM cholesterol (#C8667, Sigma-Aldrich) in MEM media at 37° C. for 30 min in suspension; murine or human (Panc-1) PDAC cells were stained in suspension with CPD670 (#65-0840-85, Thermo Fisher Scientific). After labeling, CAFs were co-incubated for the indicated time intervals with PDAC cells in 12-well culture plates at ratio of 2:1 in 0.5% DMEM media. Co-cultures of CAFs and PDAC cells for 3 minutes on ice minutes were used as negative controls. In experiments assessing the effect of extracellular calcium on trogocytosis, cells were co-cultured in Phosphate Buffered Saline (PBS) containing calcium and magnesium (D8662, Sigma-Aldrich) or in PBS without calcium and magnesium (D8537, Sigma-Aldrich). […] Trogocytosis was measured as the acquisition of CAF-specific fluorescence in PDAC cells by flow cytometry on MACSQuant® VYB Flow Cytometer (Miltenyi Biotec) or FACScan analyzer (BD Biosciences). […]
# KPCN349 cells = test: Trogocytosis of BODIPY-cholesterol labeled CAF membranes by KPCN349 cells with PtdSer masking; type: cell-based, murine; details: 100 nM Annexin-V or 100 nM Zn-DPA; CAFs pre-treated 2 h, maintained in co-culture
# Procedure: as §2
# PDAC cells = test: Trogocytosis of CAF membranes by PDAC cells with cytoskeleton inhibitors; type: cell-based; details: cytoskeleton (actin polymerization) inhibitors
# Procedure: To label cellular membranes, pairs of lipophilic fluorescent dyes were used according to the manufacturer's instructions in the following combinations: 1) adherent CAFs were stained with 1 μM PKH67 (Sigma-Aldrich), Panc-1 were stained in suspension with 10 μM CellTracker™ orange CMCMR (Thermo Fisher Scientific); 2) CAFs labeled with 0.5 μM BODIPY-cholesterol (Topfluor Cholesterol, #DO-016545, Avanti Polar Lipids) dissolved in 0.1 mM methyl-beta-cyclodextrin (#C4555, Sigma) with 2 μM cholesterol (#C8667, Sigma-Aldrich) in MEM media at 37° C. for 30 min in suspension; murine or human (Panc-1) PDAC cells were stained in suspension with CPD670 (#65-0840-85, Thermo Fisher Scientific). After labeling, CAFs were co-incubated for the indicated time intervals with PDAC cells in 12-well culture plates at ratio of 2:1 in 0.5% DMEM media. Co-cultures of CAFs and PDAC cells for 3 minutes on ice minutes were used as negative controls. In experiments assessing the effect of extracellular calcium on trogocytosis, cells were co-cultured in Phosphate Buffered Saline (PBS) containing calcium and magnesium (D8662, Sigma-Aldrich) or in PBS without calcium and magnesium (D8537, Sigma-Aldrich). After co-cultures, cells were collected and pelleted by centrifugation (5 min, 1500 rpm), resuspended in 10% formalin (Sigma) for 10 min at RT, washed and re-suspended in PBS/1% BSA. Trogocytosis was measured as the acquisition of CAF-specific fluorescence in PDAC cells by flow cytometry on MACSQuant® VYB Flow Cytometer (Miltenyi Biotec) or FACScan analyzer (BD Biosciences). Analysis of dual staining was done using FlowJo software (10.8.1, BD Biosciences). Live cells were gated based on FSC/SSC parameters, then single cells were gated based on SSC-A/SSC-H.
# OT-1 CTLs = test: Trogocytosis assay of DiD-labeled CAFs co-cultured with OT-1 CTLs; type: cell-based, mouse; details: for Transfer of DiD (CAF PM uptake) from CAFs to OT-1 CTLs: 12 h co-culture, niclosamide 1 μM, clofazimine 1 μM, anti-TIM3 Ab 4 μg/ml, 25-hydroxycholesterol 4 μM
# Procedure: For trogocytosis between OT-1 and CAF cells, T cells were isolated from splenocytes of OTI mice (strain 021880, The Jackson Laboratory) and stimulated with OVA257-264 (1 μg/ml) for 24 hours as described.
# Cholesterol abundance in cell membranes was determined with Cholesterol Detection Assay Kit (Cayman, cat #10009779). Dissociated cells were fixed with fixative solution for 10 minutes, washed and labeled with Filipin III as per the manufacturer's instructions. Labeling with Filipin III was done by incubating in the dark for 30 minutes. After two washes for 5 minutes each, labeling was analyzed by flow cytometry (excitation: 340-380, emission: 385-470). The IFN-γ, Granzyme B and Foxp3 were detected using Foxp3/Transcription Factor Staining Buffer (00-5523-00, Thermo Fisher Scientific). Cells were stained for cell surface markers at 4° C. for 30 min followed by fixation and permeabilization buffer for 30 mins and two washes with permeabilization buffer and incubation with the indicated antibodies for 30 mins, washed with PBS twice followed by flow cytometry analysis.
molecule,measurement,setting,value
Cc1cccc(F)c1C(=O)Nc1cnc(-c2cc3c(cc2Cl)OC(F)(F)O3)cn1 [zegocractin],Cytosolic Ca2+ elevation (Fluo4 signal) in CAFs engaged in cell-cell contacts with PDAC (Panc-1) cells,[1],abrogated Fluo4 fluorescent signal
same,Cytosolic Ca2+ elevation (Fluo4 signal) in CAFs engaged in cell-cell contacts with PDAC (Panc-1) cells,[1]; listed as zegocratin,effectively blocked cytosolic Ca2+ elevation
Cc1nnsc1C(=O)Nc1ccc(-n2nc(C(F)(F)F)cc2C(F)(F)F)cc1 [BTP2],Cytosolic Ca2+ elevation (Fluo4 signal) in CAFs engaged in cell-cell contacts with PDAC (Panc-1) cells,[1],effectively blocked cytosolic Ca2+ elevation; also recorded: abrogated Fluo4 fluorescent signal
same,PtdSer externalization (annexin XII) in CAFs co-cultured with Panc-1 cells,ANO6 [2],suppressed PtdSer externalization; also recorded: blocked
C[C@H](CCC(=O)O)C[C@H](C)C[C@H](C)C(=O)/C=C(\O)[C@H](C)C[C@H](C)C/C=C/[C@@H](C)[C@@H](O)[C@@H](C)[C@@H](O)C[C@@H]1CC[C@@](C)([C@H]2CC[C@@](C)([C@@H](C)O)O2)O1 [ionomycin],Cytoplasmic calcium in control CAFs,ANO6 [3]; calcium ionophore treatment,increased cytoplasmic calcium
same,PtdSer externalization to the PM in control CAFs,ANO6 [3]; calcium ionophore treatment,led these cells to externalize PtdSer
O=C(O)CN(CCOCCOCCN(CC(=O)O)CC(=O)O)CC(=O)O [EGTA],Trogocytosis of CAF membranes / uptake of membrane lipids from human CAFs by Panc-1 cells,Panc-1 cells,inhibited
same,PtdSer externalization in CAFs with extracellular calcium chelator,"ANO6 [3]; 1 μM ionomycin 5 minutes, 2 mM EGTA, annexin XII",blocked
bis-Zn-dipicolylamine [Zn-DPA],Uptake of BODIPY-labeled CAF membranes by KPCN349 cells,KPCN349 cells,significantly reduced uptake; also recorded: antagonizes trogocytosis
O=C(N/N=C/c1ccc(O)c(O)c1)c1cc2ccccc2cc1O [Dynasore],Trogocytosis of CAF membranes / uptake of membrane lipids from human CAFs by Panc-1 cells,Panc-1 cells; listed as dynasore,did not affect the uptake
COc1ccc2c(c1)CC[C@@H]1[C@@H]2CC[C@]2(C)[C@@H](NCCCCCCN3C(=O)C=CC3=O)CC[C@@H]12 [U73122],Cytosolic Ca2+ elevation (Fluo4 signal) in CAFs engaged in cell-cell contacts with PDAC (Panc-1) cells,[1],no effect on Fluo4 signal
C/C1=C/C(=O)O[C@@H]2C[C@@H](CC[C@H](C)/C=C\CC1)O[C@@](O)([C@@H]1CSC(=O)N1)C2 [Latrunculin B],Uptake of CAF PMs by PDAC cells,PDAC cells,suppressed uptake of CAF PMs
C[C@H](CCCC(C)(C)O)[C@H]1CC[C@H]2[C@@H]3CC=C4C[C@@H](O)CC[C@]4(C)[C@H]3CC[C@]12C [25-hydroxycholesterol],Ability of CAFs to inhibit IFN-γ production by the CTLs,OT-1 CTLs; 12 h co-culture with CAFs,reduced the ability of CAFs to inhibit IFN-γ production
same,Transfer of DiD (CAF PM uptake) from CAFs to OT-1 CTLs,OT-1 CTLs,effectively inhibited the transfer of DiD
lantrinculin A,Uptake of CAF PMs by PDAC cells,PDAC cells,partially suppressed
C=C1[C@@H](C)[C@H]2[C@H](Cc3ccccc3)NC(=O)[C@]23[C@H](OC(C)=O)/C=C/[C@@](C)(O)C(=O)[C@@H](C)C/C=C/[C@H]3[C@@H]1O [Cytochalasin D],Uptake of CAF PMs by PDAC cells,PDAC cells,suppressed uptake of CAF PMs
same,Uptake of CAF PMs by PDAC cells,PDAC cells; listed as cytochalasin D,partially suppressed
"annexin V: PtdSer binding recombinant annexin V, label-free (protein, UniProt P08758 2-320, looked up) Annexin A5: AQVLRGTVTDFPGFDERADAETLRKAMKGLGTDEESILTLLTSRSNAQRQEISAAFKTLFGRDLLDDLKSELTGKFEKLIVALMKPSRLYDAYELKHALKGAGTNEKVLTEIIASRTPEELRAIKQVYEEEYGSSLEDDVVGDTSGYYQRMLVVLLQANRDPDAGIDEAQVEQDAQALFQAGELKWGTDEEKFITIFGTRSVSHLRKVFDKYMTISGFQIEETIDRETSGNLEQLLLAVVKSIRSIPAYLAETLYYAMKGAGTDDHTLIRVMVSRSEIDLFNIRKEFRKNFATSLYSMIKGDTSGDYKKALLLLCGEDD",Uptake of BODIPY-labeled CAF membranes by KPCN349 cells,KPCN349 cells,significantly reduced uptake; also recorded: antagonizes trogocytosis
same,Transfer of DiD (CAF PM uptake) from CAFs to OT-1 CTLs,OT-1 CTLs,significantly reduced CAF PM uptake
